# Where two headings read alike, the source gives them in different places.
# Experiments:
# [1] = target: PARG (poly ADP-ribonal hydrolase) (Homo sapiens, UniProt Q86W56); assay: Biochemical assay (PARG, TFMU-ADPr substrate); conditions: PARG, TFMU-ADPr substrate
# HCC1806 = assay: Cell viability assay (CellTiter-Glo); format: cell-based, Human; conditions: HCC1806, 7 days, CellTiter-Glo, read-out: IC50 (nM) in cell viability assay
# [2] = test system: Human breast squamous carcinoma cells HCC1806; assay: Cell function assay (In-Cell Western, PAR/pADPr after MMS); format: cell-based; conditions: read-out: IC50 (nM) in cell function assay
# Outline: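 HCC1806 cells adhered 24 h at 37 °C, 5% CO2, then were pretreated 1 h with compound (30000 nM down to 1 nM, plus 0 nM) or DMSO. MMS was then added at 0.5 mM final for 1 h before In-Cell Western detection of PAR/pADPr.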
# [3] = Solubility assay (FaSSGF / FaSSIF); format: physicochemical; conditions: kinetic from dmso stock, 2 h at 25° C.
# Experimental: 1). Preparation of Solutions:
# The FaSSGF solution was prepared as follows: • a) preparation of FaSSGF buffer: dissolve 2.0 g of NaCl as the raw material in about 0.9 L of purified water; • b) adjustment of the pH of the buffer: adjust the pH of the buffer to 1.6 with 1N HCL, and replenish the buffer with purified water to the volume of 1 L; and • c) preparation of FaSSGF solution by addition of FaSSGF powder: add 0.06 g of the FaSSGF powder to about 0.5 L of the buffer, stir until the powder was completely dissolved, and make up for the volume (1 L) with the buffer.
# The FaSSIF solution was prepared as follows: • a) preparation of FaSSIF buffer: dissolve 0.42 g of NaOH, 3.44 g of anhydrous NaH2PO4, and 6.19 g of NaCl as raw materials in about 0.9 L of purified water; • b) adjustment the pH of the buffer: adjust the pH of the buffer to 6.5 with 1 N NaOH or 1 N HCL, and replenish the buffer with purified water to the volume of 1 L; and • c) preparation of FaSSIF solution by addition of FaSSIF powder: add 2.24 g of the FaSSIF powder to about 0.5 L of the buffer, stir until the powder was completely dissolved, and make up for the volume (1 L) with the buffer.
# 2). Preparation of the Solution of Control Compound:
# The control compound was weighed and dissolved in DMSO to 10 mM to obtain a stock solution.
# 3) Preparation of the Solution of Compound to be Tested:
# The compound to be tested was formulated into a 10 mM DMSO stock solution.
# 4) Preparation of Internal Standard Solution:
# a) The internal standard was weighed and dissolved in DMSO to 10 mM to obtain an internal standard stock solution (ISTD stock solution).
# b) The internal standard stock solution was diluted to 500 nM (Tolbutamide) with an ACN:methano mixture (volume ratio: 1:1) to obtain a quenching solution.
# a) The FaSSGF solution at pH 1.6 and the FaSSIF solution at pH 6.5 were pre-warmed; and then, the compound was injected into the buffer.
# Once done, the samples were centrifuged at 12,000 rpm for 10 min, and the supernatant was transferred to a new tube. The supernatant was diluted 10-fold and 100-fold with the FaSSGF solution at pH 1.6 or the FaSSIIF solution at pH 6.5. 20 μL of each sample (1×, 10×, 100× and standard curve) was added to 500 μL of the IS solution. The resulting mixture was vortexed vigorously for 1 min and centrifuged at 4,500 rpm for 15 min at 4° C. 150 μL of the supernatant was transferred for LC-MS/MS sample analysis.
# PARG = PARG (Homo sapiens, UniProt Q86W56); assay: Biochemical assay (PARG, TFMU-ADPr substrate)
# Chain of PARG (Q86W56 whole entry): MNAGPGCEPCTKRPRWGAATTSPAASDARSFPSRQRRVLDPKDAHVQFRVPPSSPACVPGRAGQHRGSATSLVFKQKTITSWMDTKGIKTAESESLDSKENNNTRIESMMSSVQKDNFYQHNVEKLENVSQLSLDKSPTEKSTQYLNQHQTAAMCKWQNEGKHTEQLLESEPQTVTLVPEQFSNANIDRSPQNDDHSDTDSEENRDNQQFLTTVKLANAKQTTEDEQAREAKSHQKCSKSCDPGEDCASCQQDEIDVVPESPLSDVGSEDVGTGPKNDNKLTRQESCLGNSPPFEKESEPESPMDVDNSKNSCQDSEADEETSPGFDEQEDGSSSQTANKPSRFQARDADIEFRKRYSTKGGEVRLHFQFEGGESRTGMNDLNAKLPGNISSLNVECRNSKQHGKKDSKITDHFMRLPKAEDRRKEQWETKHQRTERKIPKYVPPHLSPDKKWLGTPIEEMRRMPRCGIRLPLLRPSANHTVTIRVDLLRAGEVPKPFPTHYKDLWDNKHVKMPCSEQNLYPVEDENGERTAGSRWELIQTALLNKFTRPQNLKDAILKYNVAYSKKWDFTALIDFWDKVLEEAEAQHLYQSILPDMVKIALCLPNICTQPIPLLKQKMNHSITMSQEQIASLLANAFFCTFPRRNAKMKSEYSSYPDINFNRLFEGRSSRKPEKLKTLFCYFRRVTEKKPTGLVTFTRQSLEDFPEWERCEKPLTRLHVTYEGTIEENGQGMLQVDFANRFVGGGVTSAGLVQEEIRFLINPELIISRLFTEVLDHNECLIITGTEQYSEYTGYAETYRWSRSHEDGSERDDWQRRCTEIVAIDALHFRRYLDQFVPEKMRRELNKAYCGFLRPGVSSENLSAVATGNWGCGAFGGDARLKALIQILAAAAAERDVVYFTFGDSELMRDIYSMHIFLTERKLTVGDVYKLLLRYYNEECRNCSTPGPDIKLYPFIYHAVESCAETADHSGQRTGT
# PXR = target: T1, PXR (Homo sapiens, UniProt O75469); assay: PXR assay (DPX2 luciferase reporter cells); format: cell-based; conditions: 24 h; for PXR Activation @30 uM (% Ctrl): positive control rifampicin
# T1 construct: host or cells: DPX2 (HepG2)
# T1 sequence (O75469 1-434): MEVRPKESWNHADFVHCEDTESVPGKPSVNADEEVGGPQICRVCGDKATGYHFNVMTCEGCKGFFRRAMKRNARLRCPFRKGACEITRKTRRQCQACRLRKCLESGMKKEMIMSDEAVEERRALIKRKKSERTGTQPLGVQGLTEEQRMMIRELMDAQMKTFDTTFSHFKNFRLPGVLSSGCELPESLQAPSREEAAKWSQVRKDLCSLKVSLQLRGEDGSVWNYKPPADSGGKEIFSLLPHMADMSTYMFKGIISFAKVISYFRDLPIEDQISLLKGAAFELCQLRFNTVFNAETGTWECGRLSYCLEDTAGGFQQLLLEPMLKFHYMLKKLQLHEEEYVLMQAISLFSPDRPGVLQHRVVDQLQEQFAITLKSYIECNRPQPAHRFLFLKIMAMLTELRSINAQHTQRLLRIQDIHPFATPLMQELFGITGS
# Experimental: 1) Information of Cell Line
# DPX2 (HepG2 cells stably transfected with PXR and luciferase reporter) cells were purchased from Puracyp Inc (Carlsbad, CA).
# 2) Experimental Procedures a) Reagents and Consumables
# The DPX2 cells were cultured in the growth medium containing 1000 fetal bovine serum. The DPX2 cells in a T-75 flask were cultured in the […] incubator at 37° C. with 950% relative humidity, and digested when the cells grew to cover 80-90% of the bottom of the flask.
# The surface layer of the T-75 cultured cells was washed with 10 mL of PBS; PBS was pipetted; 3-5 mL of tryp sin was added; the cells were digested at 37° C. for 5 minutes or until the cells were digested to be suspended; and excessive medium containing fetal bovine serum was added to stop trypsinization. The cell suspension was transferred to a conical-bottomed centrifuge tube and centrifuged at 150 g rpm for 5 minutes at room temperature; the supernatant was carefully pipetted; and the cells were resuspended with the treatment medium, with the concentration adjusted to 3.2×10^5 cells/mL (incubation time: 24 hours, plate seeding density: […]). 25 μL of the cell suspension was added to each well of the 384-well cell culture plate.
# The cell culture plate was placed and cultured for 24 h in the […] incubator with 9500 humidity at 37° C. c) Formulation of Compound
# The stock solution of each of 1000× test compound, the positive control (rifampicin), and the negative control (propranolol) was prepared with DMSO. The final concentrations of the positive control (rifampicin) were 1 μM and 10 μM, and the final concentration of the negative control (propranolol) was 10 μM. The final concentrations of the test compound were 10 μM, 1 μM, 0.1 μM, or EC50 (30 μM, 10 μM, 3 μM, 1 μM, 0.3 μM, 0.1 μM). The final concentration of DMSO was 0.10. The cell culture plate was taken out from the incubator, and 25 nL of the stock solution of the positive control, negative control or test compound was directly added with Echo, each with three parallel concentrations. The cell culture plate was placed in the incubator and continued to be incubated for 24 h. Before starting the assay with the substrate, the cell morphology and the monolayer integrity were checked to ensure that the monolayer was of acceptable research quality. […]
# d) Quantitative Detection with PXR Activation
# After 24 hours of dosing, the culture could be quantitatively detected with PXR activation. The CellTiter-Fluor™ Cell Viability Assay Kit and One-Glo Luciferase reagent were equilibrated to room temperature. The GF-AFC substrate (10 μL) was added to the assay buffer (10 ml) to develop a 2× reagent, which was then diluted into a 1× reagent with 10 ml of PBS. The ONE-Glo Luciferase substrate was added to the ONE-Glo Luciferase assay buffer. The culture plate was taken out from the incubator; the medium was discarded; 1× of CellTiter-Fluor™ reagent was poured into the loading slot; 25 μL of reagent were added per well to the culture plate with a pipetting workstation; and the culture plate was then incubated in the incubator for 30 minutes. The cell culture plate was taken out from the incubator, and cooled slightly to room temperature; and the fluorescence value was determined with a fully automatic quantitative microplate reader, with the excitation light of 400 nm and the emission light of 505 nm. The ONE-Glo reagent was poured into the loading slot, with 25 μL per well, and the resulting mixture was gently mixed in the plate, and incubated at room temperature for 5 minutes to determine the luminescence value.
# [4] = HCC1806, In-Cell Western, MMS treatment
# [5] = HCC1806, compound 1 h then 0.5 mM MMS 1 h, PAR/pADPr antibody, In-Cell Western
# [6] = fassgf or other biorelevant, FaSSGF solution pH 1.6, 100 μM from DMSO stock, read-out: FaSSGF solubility
# [7] = FaSSIF solution pH 6.5, 100 μM from DMSO stock, read-out: FaSSIF solubility
# [8] = 4 nM PARG, 66.2 uM TFMU-ADPr, 3 min at room temperature
# Chain of PARG (poly ADP-ribonal hydrolase) (Q86W56 whole entry): as the sequence (Q86W56 whole entry) above
Structure (SMILES),IC50 [1],IC50 (HCC1806),"IC50 (HCC1806; Homo sapiens, HCC1806, 168 h)","IC50 [2, 4]","IC50 [2, 5]","solubility at 2 h [3, 6]","solubility at 2 h [3, 7]",IC50 (PARG; [8]),"IC50 (PARG; PARG, TFMU-ADPr substrate)",PXR Activation @30 uM (Fold) (PXR),PXR Activation @30 uM (% Ctrl) (PXR)
"CC(C)C(=O)N1CCN(c2cc(S(=O)(=O)NC(C)C(F)(F)F)cn3c(-c4nnc(C(F)F)s4)ncc23)CC1 (centres unmarked) [Example 35, 3-(5-(difluoromethyl)-1,3,4-thiadiazol-2-yl)-8-(4-isobutyrylpiperazin-1-yl)-N-(1,1,1-trifluoropropan-2-yl)imidazo[1,5-a]pyridine-6-sulfonamide]",128 nM,,,,,,,,,,
"CC(C)C(=O)N1CCN(c2cc(S(=O)(=O)NC3(CF)COC3)cn3c(-c4nnc(C(F)F)s4)ncc23)CC1 [Example 60, 3-(5-(difluoromethyl)-1,3,4-thiadiazol-2-yl)-N-(3-(fluoromethyl)oxetan-3-yl)-8-(4-isobutyrylpiperazin-1-yl)imidazo[1,5-a]pyridine-6-sulfonamide]",,438 nM,< 500 nM,2.85 nM,> 1000 nM,3.83 µM,10 µM,< 100 nM,0.19 nM,,
"CC1(O)CCN(c2cc(S(=O)(=O)NC3(CF)CC3)cn3c(-c4nnc(C(F)F)s4)nnc23)CC1 [Example 107, 3-(5-(difluoromethyl)-1,3,4-thiadiazol-2-yl)-N-(1-(fluoromethyl)cyclopropyl)-8-(4-hydroxy-4-methylpiperidin-1-yl)-[1,2,4]triazolo[4,3-a]pyridine-6-sulfonamide]",,513 nM,500 to 5000 nM,74 nM,< 100 nM,15.9 µM,24.2 µM,< 100 nM,2.04 nM,,
"C[C@@H]1CN(c2cc(S(=O)(=O)NC3(CF)CC3)cn3c(-c4nnc(C(F)F)s4)nnc23)CCN1C(=O)C1(C)CC1 [Example 120, (R)-3-(5-(difluoromethyl)-1,3,4-thiadiazol-2-yl)-N-(1-(fluoromethyl)cyclopropyl)-8-(3-methyl-4-(1-methylcyclopropane-1-carbonyl)piperazin-1-yl)-[1,2,4]triazolo[4,3-a]pyridine-6-sulfonamide]",,,,2.28 nM,< 100 nM,81.8 µM,140 µM,< 100 nM,1.49 nM,,
"[2H]c1nc(-c2nnc(C(F)F)s2)n2cc(S(=O)(=O)NC3(C)COC3)cc(N3CCN(C(=O)C(C)C)CC3)c12 [Example 159, 3-(5-(difluoromethyl)-1,3,4-thiadiazol-2-yl)-8-(4-isobutyrylpiperazin-1-yl)-N-(3-methyloxetan-3-yl)imidazo[1,5-a]pyridine-6-sulfonamide-1-d]",,,,1.12 nM,< 100 nM,5.19 µM,17.4 µM,< 100 nM,0.46 nM,,
"N#CC1(NS(=O)(=O)c2cc(N3CCN(C(=O)C4CCO4)CC3)c3cnc(-c4nnc(C(F)(F)F)s4)n3c2)CC1 (centres unmarked) [Example 236, N-(1-cyanocyclopropyl)-8-(4-(oxetane-2-carbonyl)piperazin-1-yl)-3-(5-(trifluoromethyl)-1,3,4-thiadiazol-2-yl)imidazo[1,5-a]pyridine-6-sulfonamide]",,1100 nM,,,,75.7 µM,82.6 µM,,3.8 nM,1.5 Fold,7 % Ctrl
"N#CC1(NS(=O)(=O)c2cc(N3CCN(C(=O)C4CNC4)CC3)c3cnc(-c4nnc(C(F)(F)F)s4)n3c2)CC1 [Example 251, 8-(4-(azetidine-3-carbonyl)piperazin-1-yl)-N-(1-cyanocyclopropyl)-3-(5-(trifluoromethyl)-1,3,4-thiadiazol-2-yl)imidazo[1,5-a]pyridine-6-sulfonamide]",,,8780 nM,,,80.6 µM,78.1 µM,,6.03 nM,1.5 Fold,11 % Ctrl

# Source: patent US20260258035A1, “FIVE-MEMBERED AND SIX-MEMBERED NITROGEN-CONTAINING COMPOUND, AND INTERMEDIATE, PREPARATION METHOD AND USE THEREOF” (HANGZHOU SYNRX THERAPEUTICS BIOMEDICAL TECHNOLOGY CO., LTD., priority 2022, published 2026)
